These results are taken from ChEMBL document CHEMBL2074082, “Characterization of the monocarboxylate transporter 1 expressed in Xenopus laevis oocytes by changes in cytosolic pH” (Biochem J, 1998).

In assay [1] the target is T1, Monocarboxylate transporter 1 (Rattus norvegicus) (UniProt P53987).
T1 sequence (whole entry): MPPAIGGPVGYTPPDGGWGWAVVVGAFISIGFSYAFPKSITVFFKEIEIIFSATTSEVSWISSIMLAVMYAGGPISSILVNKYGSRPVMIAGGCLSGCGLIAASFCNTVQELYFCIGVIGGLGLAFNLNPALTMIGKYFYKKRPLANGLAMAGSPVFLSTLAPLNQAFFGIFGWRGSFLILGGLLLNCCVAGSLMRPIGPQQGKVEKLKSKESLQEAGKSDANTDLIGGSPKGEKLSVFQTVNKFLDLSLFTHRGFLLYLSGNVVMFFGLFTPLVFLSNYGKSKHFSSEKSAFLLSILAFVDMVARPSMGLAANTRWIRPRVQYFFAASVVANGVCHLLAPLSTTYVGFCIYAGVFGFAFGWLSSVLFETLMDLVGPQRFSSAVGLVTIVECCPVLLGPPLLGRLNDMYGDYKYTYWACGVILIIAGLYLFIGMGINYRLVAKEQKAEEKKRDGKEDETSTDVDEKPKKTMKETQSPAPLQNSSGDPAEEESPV
Briefly: TP_TRANSPORTER: change in intracellular pH(pHi)value in Xenopus laevis oocytes. The assay is classed as functional, cell-based. Particulars: Oocyte.

Assay [2] has as its target T1, Monocarboxylate transporter 1 (Rattus norvegicus). Briefly: TP_TRANSPORTER: inhibition of lactate uptake(pHi charge) in Xenopus laevis oocytes. As to conditions: Oocyte. The assay is classed as functional, cell-based.

Turning to `CC(=O)CC(=O)O`, the Activity entry in assay [1] is “substrate [+]”.

With `N#C/C(=C\c1ccc(O)cc1)C(=O)O`, the Activity result in assay [2] was “inhibitor [+]”.

Consider `CC(O)CC(=O)O` (racemic), for which the Activity entry in assay [1] was “substrate [+]”.
